Experimental data from patent publication US20090124572A1, “Iron-containing nutritional supplement” (priority 2007, published 2009).

Tests used:
Caco-2 cells = assay: In-solution treatment of Caco-2 cells, ferritin formation as index of iron uptake/bioavailability (Experiments 1 and 2); conditions: Experiment 1, 6-well plates, iron 20 μmol/L, AA 400 μmol/L, 20 hours
Description: Cell culture. Caco-2 cells were obtained from the American Type Culture Collection at passage 17 and used in experiments at passage 29-35. Cells were seeded at a density of 50,000 cells/cm^2 in collagen-treated 6-well or 24-well plates. The integrity of the monolayer was verified by optical microscopy. […] The cells were maintained in Dulbecco's Modified Eagle Medium (DMEM) plus 1% antibiotic/antimycotic solution, 25 mmol/L HEPES and 10% fetal bovine serum; the medium was changed every 2 days. Two days before the experiment, the growth medium was removed from each culture well, and the cell layer was washed and maintained with Minimum Essential Media (MEM) at pH 7.0. […] This enriched MEM contained less than 80 μg iron/L. Iron uptake experiments were conducted 13 days post-seeding.
Harvesting of Caco-2 cells for ferritin analysis. […] Ferritin concentration and total protein concentration were determined on an aliquot of the harvested cell suspension with a one-stage sandwich immunoradiometric assay and a colorimetric assay, respectively. […] Therefore, the ratio of ferritin/total protein expressed as ng ferritin/mg protein, was used as an index of the cellular iron uptake.
In-solution treatment. […] Cellular ferritin and total protein was then analyzed and compared among all treatments. […]

[1] = dissolved in water; cited from earlier work

Compound	ferritin formation in Caco-2 cells in the presence of ascorbic acid (Caco-2 cells)	pH of aqueous solution [1]
[Cl][Fe]([Cl])[Cl] [FeCl3, ferric chloride]	significantly lower	–
ferrous sulfate	–	about 2
